Format in all cases: in vivo
Assay [1] has as its system Alopecurus myosuroides (ALOMY). Briefly: Test Example B, pre-emergence herbicidal test. To be noted: 312 h, evaluated after 13 days, 100=total damage to plant, 0=no damage to plant. The procedure:
(§1) Seeds of a variety of test species were sown in standard soil in pots. After cultivation for one day (pre-emergence) or after 8 days cultivation (post-emergence) under controlled conditions in a glasshouse (at 24/16° C., day/night; 14 hours light; 65% humidity), the plants were sprayed with an aqueous spray solution derived from the formulation of the technical active ingredient in acetone/water (50:50) solution containing 0.5% Tween 20 (polyoxyethelyene sorbitan monolaurate, CAS RN 9005-64-5). The test plants were then grown in a glasshouse under controlled conditions in a glasshouse (at 24/16° C., day/night; 14 hours light; 65% humidity) and watered twice daily. After 13 days for pre and post-emergence, the test was evaluated (100=total damage to plant; 0=no damage to plant). Test Plants: Setaria faberi (SETFA), Alopecurus myosuroides (ALOMY), Echinochloa crus-galli (ECHCG), and Avena fatua (AVEFA).

Assay [2] concerns Avena fatua (AVEFA). Briefly: Test Example B, pre-emergence herbicidal test. To be noted: 312 h, evaluated after 13 days, 100=total damage to plant, 0=no damage to plant. The procedure:
as §1

For assay [3], the system named is Echinochloa crus-galli (ECHCG). Put plainly: Test Example B, pre-emergence herbicidal test. The following applies: 312 h, evaluated after 13 days, 100=total damage to plant, 0=no damage to plant. The procedure: as §1
Assay [4] concerns Setaria faberi (SETFA). Put plainly: Test Example B, pre-emergence herbicidal test. The following applies: 250 g/ha, evaluated after 13 days, 100=total damage to plant, 0=no damage to plant. The procedure:
as §1

For assay [5], the system named is Alopecurus myosuroides (ALOMY). Briefly: Test Example B, post-emergence herbicidal test. To be noted: 312 h, evaluated after 13 days, 100=total damage to plant, 0=no damage to plant. The procedure:
as §1

In assay [6] the test system is Avena fatua (AVEFA). Put plainly: Test Example B, post-emergence herbicidal test. The following applies: 312 h, evaluated after 13 days, 100=total damage to plant, 0=no damage to plant. The procedure:
as §1

Assay [7] concerns Echinochloa crus-galli (ECHCG). Briefly: Test Example B, post-emergence herbicidal test. To be noted: 312 h, evaluated after 13 days, 100=total damage to plant, 0=no damage to plant. The procedure:
as §1

Assay [8] relates to Setaria faberi (SETFA). Briefly: Test Example B, post-emergence herbicidal test. The following applies: 250 g/ha, evaluated after 13 days, 100=total damage to plant, 0=no damage to plant. The procedure: as §1
The test system of assay [9] is Alopecurus myosuroides (ALOMY). Put plainly: Test Example 1, pre-emergence herbicidal test. To be noted: 480 h, evaluated 20 days later, 100=total damage to plant, 0=no damage to plant. The procedure:
(§2) Monocotyledonous and dicotyledonous test plants were sown in standard soil in pots. After cultivation for one day (pre-emergence) or after 10 days cultivation (post-emergence) under controlled conditions in a glasshouse, the plants were sprayed with an aqueous spray solution derived from the formulation of the technical active ingredient in 0.6 ml acetone and 45 ml formulation solution containing 10.6% Emulsogen EL (Registry number 61791-12-6), 42.2% N-methylpyrrolidone, 42.2% dipropylene glycol monomethyl ether (Registry number 34590-94-8) and 0.2% X-77 (Registry number 11097-66-8). The test plants were then grown in a greenhouse under optimum conditions until, 15 days later for post-emergence and 20 days for pre-emergence, the test was evaluated (100=total damage to plant; 0=no damage to plant). Test Plants: Lolium perenne (LOLPE), Setaria faberi (SETFA), Digitaria sanguinalis (DIGSA), Alopecurus myosuroides (ALOMY), Echinochloa crus-galli (ECHCG) and Avena fatua (AVEFA), Pre-Emergence Data: […]

For assay [10], the system named is Avena fatua (AVEFA). Briefly: Test Example 1, pre-emergence herbicidal test. To be noted: 480 h, evaluated 20 days later, 100=total damage to plant, 0=no damage to plant. The procedure:
as §2

Assay [11] relates to Digitaria sanguinalis (DIGSA). Put plainly: Test Example 1, pre-emergence herbicidal test. The following applies: 480 h, evaluated 20 days later, 100=total damage to plant, 0=no damage to plant. The procedure:
as §2

For assay [12], the system named is Echinochloa crus-galli (ECHCG). Briefly: Test Example 1, pre-emergence herbicidal test. To be noted: 480 h, evaluated 20 days later, 100=total damage to plant, 0=no damage to plant. The procedure:
as §2

Assay [13] deals with Lolium perenne (LOLPE). Briefly: Test Example 1, pre-emergence herbicidal test. To be noted: 480 h, evaluated 20 days later, 100=total damage to plant, 0=no damage to plant. The procedure: as §2
In assay [14] the test system is Setaria faberi (SETFA). Briefly: Test Example 1, pre-emergence herbicidal test. To be noted: 480 h, evaluated 20 days later, 100=total damage to plant, 0=no damage to plant, read-out: SEFTA damage to plant. The procedure:
as §2

In assay [15] the test system is Alopecurus myosuroides (ALOMY). Put plainly: Test Example 1, post-emergence herbicidal test. The following applies: 360 h, evaluated 15 days later, 100=total damage to plant, 0=no damage to plant. The procedure: as §2, with “Post-Emergence” for “Pre-Emergence”
For assay [16], the system named is Avena fatua (AVEFA). Briefly: Test Example 1, post-emergence herbicidal test. The following applies: 360 h, evaluated 15 days later, 100=total damage to plant, 0=no damage to plant. The procedure: as §2, with “Post-Emergence” for “Pre-Emergence”
For assay [17], the system named is Digitaria sanguinalis (DIGSA). Briefly: Test Example 1, post-emergence herbicidal test. The following applies: 360 h, evaluated 15 days later, 100=total damage to plant, 0=no damage to plant. The procedure:
as §2, with “Post-Emergence” for “Pre-Emergence”

Assay [18] has as its system Echinochloa crus-galli (ECHCG). Put plainly: Test Example 1, post-emergence herbicidal test. To be noted: 360 h, evaluated 15 days later, 100=total damage to plant, 0=no damage to plant. The procedure:
as §2, with “Post-Emergence” for “Pre-Emergence”

The test system of assay [19] is Lolium perenne (LOLPE). Briefly: Test Example 1, post-emergence herbicidal test. The following applies: 360 h, evaluated 15 days later, 100=total damage to plant, 0=no damage to plant. The procedure: as §2, with “Post-Emergence” for “Pre-Emergence”
Assay [20] relates to Setaria faberi (SETFA). Briefly: Test Example 1, post-emergence herbicidal test. To be noted: 360 h, evaluated 15 days later, 100=total damage to plant, 0=no damage to plant, read-out: SEFTA damage to plant. The procedure: as §2, with “Post-Emergence” for “Pre-Emergence”

Regarding `CCc1ccc(-c2ccc(Cl)cc2)cc1C1=C(O)[C@H]2[C@@H]3CC[C@@H](C(=O)C3)[C@H]2C1=O` (racemic) [Compound T7, rac-(3aS,4R,7R,7aR)-2-(4′-chloro-4-ethylbiphenyl-3-yl)hexahydro-4,7-ethanoindene-1,3,8-trione], the pest or weed control at 250 g/ha in [1] was 90%; with Avena fatua (AVEFA) [2] it was 70%; in assay [3], 100%; in assay [5], 20%; with Avena fatua (AVEFA) [6], 20%; in assay [7], 20%. In addition, the “SETFA damage to plant” value in the assay with Setaria faberi (SETFA) [4] is listed as 90; with Setaria faberi (SETFA) [8] it was 60.
For `CCc1ccc(-c2ccc(Cl)cc2)cc1C1=C(O)[C@H]2[C@@H]3CC[C@@H](C(=NOC)C3)[C@H]2C1=O` (racemic) [Compound T9, rac-(3aS,4R,7R,7aR)-2-(4′-chloro-4-ethylbiphenyl-3-yl)hexahydro-4,7-ethanoindene-1,3,8-trione 8-(O-methyloxime)], the pest or weed control at 250 g/ha in assay [1] turned out to be 0%; in the assay on Avena fatua (AVEFA) [2], 0%; in assay [3], 0%; in assay [5] it was 70%; in the assay with Avena fatua (AVEFA) [6] it was 60%; in assay [7] it was 90%. Further, the “SETFA damage to plant” value in the assay with Setaria faberi (SETFA) [4] turned out to be 0; in the assay on Setaria faberi (SETFA) [8], 100.
With `Cc1cc(-c2ccccc2)cc(C)c1C1=C(O)[C@@H]2[C@H](C1=O)[C@@H]1C=C[C@H]2CC1` (racemic) [Compound T56, endo-(3aR,4S,7R,7aS)-2-(3,5-dimethylbiphenyl-4-yl)-3a,4,7,7a-tetrahydro-4,7-ethanoindene-1,3-dione], the pest or weed control at 250 g/ha in assay [1] came to 100%; with Avena fatua (AVEFA) [2], 20%; in [3] it was 100%; in assay [5], 60%; in the assay with Avena fatua (AVEFA) [6], 60%; in [7], 100%. The “SETFA damage to plant” value in the assay on Setaria faberi (SETFA) [4] and with Setaria faberi (SETFA) [8] was 100 in each case.
Take `CCc1cc(C)cc(CC)c1C1=C(O)[C@H]2[C@H]3C=C[C@](OC)(CC3)[C@H]2C1=O` [Compound T55]: the pest or weed control at 250 g/ha stood at 100% in [9]; 70% with Avena fatua (AVEFA) [10]; 100% in [11]; 100% in [12]; 100% with Lolium perenne (LOLPE) [13]; 100% in the assay with Setaria faberi (SETFA) [14]. For the same compound, the pest or weed control at 125 g/ha in [15] stood at 80%; with Avena fatua (AVEFA) [16], 80%; in [17], 80%; in assay [18] it was 100%; in the assay with Lolium perenne (LOLPE) [19], 70%; in the assay with Setaria faberi (SETFA) [20], 90%.
On to `CCc1cc(C)cc(CC)c1C1=C(O)[C@H]2[C@H]3CC[C@](OC)(CC3)[C@H]2C1=O` [Compound T57], for which the pest or weed control at 250 g/ha was determined as 100% in [1]; 100% with Avena fatua (AVEFA) [2]; 100% in assay [3]; 70% in [5]; 30% in the assay with Avena fatua (AVEFA) [6]; 100% in assay [7]. The “SETFA damage to plant” value in the assay on Setaria faberi (SETFA) [4] and in the assay with Setaria faberi (SETFA) [8] was 100 each time.
For the compound `CO/N=C1/C[C@H]2CC[C@@H]1[C@H]1C(=O)C(c3c(C)cc(C)cc3C)=C(O)[C@@H]21` [Compound T59], the pest or weed control at 250 g/ha in [1] came to 90%; in the assay on Avena fatua (AVEFA) [2] it was 30%; in assay [3], 80%; in assay [5], 30%; in the assay on Avena fatua (AVEFA) [6], 0%; in assay [7], 50%. The “SETFA damage to plant” value in the assay with Setaria faberi (SETFA) [4] and in the assay on Setaria faberi (SETFA) [8] was 80 each time.
